The target of assay [1] is T1, recombinant human CYP11B2 (Homo sapiens, UniProt P19099).
T1 construct: made in house; host or cells: V79-4 cells (enzyme enriched microsomal fraction of cell lysates)
T1 sequence (P19099 25-503): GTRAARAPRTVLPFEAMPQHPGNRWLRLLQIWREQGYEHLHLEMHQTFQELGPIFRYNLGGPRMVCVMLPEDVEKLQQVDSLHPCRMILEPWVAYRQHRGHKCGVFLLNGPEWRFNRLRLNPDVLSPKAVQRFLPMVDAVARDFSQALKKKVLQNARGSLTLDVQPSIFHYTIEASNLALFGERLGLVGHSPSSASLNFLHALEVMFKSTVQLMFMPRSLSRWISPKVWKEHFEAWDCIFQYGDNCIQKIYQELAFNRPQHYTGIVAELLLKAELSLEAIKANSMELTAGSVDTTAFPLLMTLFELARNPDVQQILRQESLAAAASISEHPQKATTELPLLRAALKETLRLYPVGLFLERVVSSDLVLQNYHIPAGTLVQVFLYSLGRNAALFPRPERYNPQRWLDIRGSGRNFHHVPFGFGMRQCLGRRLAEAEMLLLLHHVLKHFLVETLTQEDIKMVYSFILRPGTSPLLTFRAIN
The assay can be described thus: CYP11B2 enzyme assay, enzyme enriched microsomes from V79-4 cells, aldosterone by LC-MS. Format: biochemical. The conditions noted are these: IC50 ranges; run at Km of 11-deoxycorticosterone; read-out: hCYP11B2 IC50.
Method: (§1) An enzyme enriched microsomal fraction was prepared from cellular lysates and subsequently used as the enzyme source for determining inhibitor IC50s. […] Enzyme assays for inhibitor screening employed CYP11B2 and CYP11B1 enzyme enriched microsomes and were run at the Km of the respective substrates. Products of the enzyme reactions, aldosterone for CYP11B2 or cortisol for CYP11B1, were measured by LC-MS. Assays were run under conditions of less than 20% substrate turnover. Inhibitor IC50s were generated by determining the product formation in the absence or presence of inhibitor at various concentrations. In the absence of the test compound, the product formed (Pt) in each data set was defined as 100% activity. In the absence of enzyme, the product formed (Pb) in each data set was defined as 0% activity. The percent activity in the presence of each inhibitor was calculated according to the following equation: % activity=(P−Pb)/(Pt−Pb), where P=the product formed in the presence of the inhibitor.

In assay [2] the target is T2, recombinant human CYP11B1 (Homo sapiens, UniProt P15538).
T2 construct: made in house; host or cells: V79-4 cells (enzyme enriched microsomal fraction of cell lysates)
T2 sequence (P15538 25-503): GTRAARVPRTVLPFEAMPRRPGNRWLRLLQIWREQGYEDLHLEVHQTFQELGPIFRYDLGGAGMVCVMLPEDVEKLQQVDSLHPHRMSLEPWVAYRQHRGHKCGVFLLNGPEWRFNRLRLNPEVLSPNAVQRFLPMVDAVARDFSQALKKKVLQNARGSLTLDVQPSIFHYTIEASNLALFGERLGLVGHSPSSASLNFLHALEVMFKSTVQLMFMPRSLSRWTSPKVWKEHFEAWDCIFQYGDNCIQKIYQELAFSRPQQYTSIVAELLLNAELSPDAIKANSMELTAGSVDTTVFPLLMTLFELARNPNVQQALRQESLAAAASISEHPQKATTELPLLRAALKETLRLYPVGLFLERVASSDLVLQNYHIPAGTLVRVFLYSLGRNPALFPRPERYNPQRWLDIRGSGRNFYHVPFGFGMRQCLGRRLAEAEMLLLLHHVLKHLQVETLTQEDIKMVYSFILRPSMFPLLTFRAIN
The assay can be described thus: CYP11B1 enzyme assay, enzyme enriched microsomes from V79-4 cells, cortisol by LC-MS. Format: biochemical. The settings on record: IC50 ranges; run at Km of 11-deoxycortisol; read-out: hCYP11B1 IC50.
Method: as §1

For the molecule `N#Cc1ncncc1-c1nc2ccc(F)cc2n1C1CC1` [Example 10, 5-(1-Cyclopropyl-6-fluoro-1H-benzo[d]imidazol-2-yl)pyrimidine-4-carbonitrile], the IC50 in assay [1] lay within 1 to 100 nM; in assay [2], 1000 to 10000 nM.
On to `CNc1ncncc1-c1nc2ccc(C#N)cc2n1C1CC1` [Example 39, 1-Cyclopropyl-2-(4-(methylamino)pyrimidin-5-yl)-1H-benzo[d]imidazole-6-carbonitrile], for which the IC50 was 1 to 100 nM in assay [1] and 100 to 1000 nM in assay [2].
Taken in the same sequence, the figures for `N#Cc1ccc2nc(-c3cncnc3C(F)(F)F)n(C3CC3)c2n1` [Example 65, 3-Cyclopropyl-2-(4-(trifluoromethyl)pyrimidin-5-yl)-3H-imidazo[4,5-b]pyridine-5-carbonitrile] were 1 to 100 nM and 1000 to 10000 nM.
Regarding `Cc1ncncc1-c1nc2cnc(C#N)cc2n1C1CC1` [Example 56, 1-Cyclopropyl-2-(4-methylpyrimidin-5-yl)-1H-imidazo[4,5-c]pyridine-6-carbonitrile], the half-inhibitory concentration (IC50) in assay [1] is 100 to 1000 nM; in assay [2] it was greater than 10000 nM.
As for `CCc1ncncc1-c1nc2ccc(F)cc2n1CC` [Example 16, 1-Ethyl-2-(4-ethylpyrimidin-5-yl)-6-fluoro-1H-benzo[d]imidazole], the half-inhibitory concentration (IC50) in assay [1] is 100 to 1000 nM; in assay [2], 1000 to 10000 nM.
On the same counts, the results for `O=C(O)c1ccc2nc(-c3cncnc3C(F)(F)F)n(C3CC3)c2c1` [Example 70, 1-Cyclopropyl-2-(4-(trifluoromethyl)pyrimidin-5-yl)-1H-benzo[d]imidazole-6-carboxylic acid] are greater than 10000 nM and greater than 10000 nM.
On the same counts, the results for `CC(C)c1ncncc1-c1nc2ccc(Cl)cc2n1C1CC1` [Example 24, 6-Chloro-1-cyclopropyl-2-(4-isopropylpyrimidin-5-yl)-1H-benzo[d]imidazole] are 1 to 100 nM and 1000 to 10000 nM.
With `FC(F)(F)c1ncncc1-c1nc2ccc(Cl)nc2n1C1CC1` [Example 61, 5-Chloro-3-cyclopropyl-2-(4-(trifluoromethyl)pyrimidin-5-yl)-3H-imidazo[4,5-b]pyridine], the half-maximal inhibitory concentration (IC50) lay within 1 to 100 nM in assay [1] and 1000 to 10000 nM in assay [2].
On the same counts, the results for `CCc1ncncc1-c1nc2ccc(F)c(F)c2n1C1CC1` [Example 17, 1-Cyclopropyl-2-(4-ethylpyrimidin-5-yl)-6,7-difluoro-1H-benzo[d]imidazole] are 1 to 100 nM and 1000 to 10000 nM.
As to `CCc1ncncc1-c1nc2cc(F)c(F)cc2n1C1CC1` [Example 45, 1-Cyclopropyl-2-(4-ethylpyrimidin-5-yl)-5,6-difluoro-1H-benzo[d]imidazole], the figures for the IC50 in assay [1] and in assay [2] were 1 to 100 nM and 1000 to 10000 nM, respectively.
Taken in the same sequence, the figures for `Cc1ncncc1-c1nc2ccc(C#N)nc2n1C1CC1` [Example 52, 3-Cyclopropyl-2-(4-methylpyrimidin-5-yl)-3H-imidazo[4,5-b]pyridine-5-carbonitrile] were 1 to 100 nM and 1000 to 10000 nM.
Taken in the same sequence, the figures for `COc1ncncc1-c1nc2ccc(F)cc2n1C1CC1` [Example 6, 1-Cyclopropyl-6-fluoro-2-(4-methoxypyrimidin-5-yl)-1H-benzo[d]imidazole] were 100 to 1000 nM and greater than 10000 nM.
On the same counts, the results for `Fc1cc2nc(-c3cncnc3C3CC3)n(C3CC3)c2cc1F` [Example 72, 1-Cyclopropyl-2-(4-cyclopropylpyrimidin-5-yl)-5,6-difluoro-1H-benzo[d]imidazole] are 100 to 1000 nM and greater than 10000 nM.
For the molecule `CCn1c(-c2cncnc2)cc2ccc(Cl)cc21` [Example 47, 6-Chloro-1-ethyl-2-(pyrimidin-5-yl)-1H-indole], the figures for the IC50 in assay [1] and in assay [2] were 1 to 100 nM and 100 to 1000 nM, respectively.
For the molecule `CC(=O)NCc1ncncc1-c1nc2ccc(F)cc2n1C1CC1` [Example 19, N-((5-(1-Cyclopropyl-6-fluoro-1H-benzo[d]imidazol-2-yl)pyrimidin-4-yl)methyl)acetamide], the IC50 is 1000 to 10000 nM in assay [1] and greater than 10000 nM in assay [2].
Taken in the same sequence, the figures for `CCc1ncncc1-c1nc2ccc(Cl)cc2n1C1CC1` [Example 11, 6-Chloro-1-cyclopropyl-2-(4-ethylpyrimidin-5-yl)-1H-benzo[d]imidazole] were 1 to 100 nM and 1000 to 10000 nM.
On the same counts, the results for `FC(F)(F)c1ncncc1-c1nc2cc(Cl)cnc2n1C1CC1` [Example 66, 6-Chloro-3-cyclopropyl-2-(4-(trifluoromethyl)pyrimidin-5-yl)-3H-imidazo[4,5-b]pyridine] are 1000 to 10000 nM and greater than 10000 nM.
On the same counts, the results for `Cc1ncc(-c2nc3ccc(F)cc3n2C2CC2)cn1` [Example 20, 1-Cyclopropyl-6-fluoro-2-(2-methylpyrimidin-5-yl)-1H-benzo[d]imidazole] are 1000 to 10000 nM and greater than 10000 nM.
As for `Fc1ccc2nc(-c3cnc(Cl)nc3Cl)n(C3CC3)c2c1` [Example 35, 1-Cyclopropyl-2-(2,4-dichloropyrimidin-5-yl)-6-fluoro-1H-benzo[d]imidazole], the 50% inhibitory concentration (IC50) is 1000 to 10000 nM in assay [1] and greater than 10000 nM in assay [2].
Taken in the same sequence, the figures for `Cc1ncncc1-c1nc2cnc(Cl)cc2n1C1CC1` [Example 55, 6-Chloro-1-cyclopropyl-2-(4-methylpyrimidin-5-yl)-1H-imidazo[4,5-c]pyridine] were 100 to 1000 nM and greater than 10000 nM.
Taken in the same sequence, the figures for `CC(C)(C)Nc1ncncc1-c1nc2cc(F)c(F)cc2n1C1CC1` [Example 34, N-(tert-Butyl)-5-(1-cyclopropyl-5,6-difluoro-1H-benz[d]imidazol-2-yl)pyrimidin-4-amine] were 1 to 100 nM and 100 to 1000 nM.
Taken in the same sequence, the figures for `N#Cc1ncncc1-c1nc2cc(F)c(F)cc2n1C1CC1` [Example 46, 5-(1-Cyclopropyl-5,6-difluoro-1H-benzo[d]imidazol-2-yl) pyrimidine-4-carbonitrile] were 1 to 100 nM and 1000 to 10000 nM.
Take `Fc1cc2nc(-c3cncnc3)n(C3CC3)c2cc1F` [Example 7, 1-Cyclopropyl-5,6-difluoro-2-(pyrimidin-5-yl)-1H-benzo[d]imidazole]: the concentration for half-maximal inhibition (IC50) in assay [1] is 1 to 100 nM; in assay [2], 1000 to 10000 nM.
Take `N#Cc1ccc2nc(-c3cncnc3C(F)F)n(C3CC3)c2c1` [Example 54, 1-Cyclopropyl-2-(4-(difluoromethyl)pyrimidin-5-yl)-1H-benzo[d]imidazole-6-carbonitrile]: the values for the IC50 in assay [1] and in assay [2] were 1 to 100 nM and 1000 to 10000 nM, respectively.
As to `CCCc1ncncc1-c1nc2ccc(C#N)cc2n1C1CC1` [Example 40, 1-Cyclopropyl-2-(4-propylpyrimidin-5-yl)-1H-benzo[d]imidazole-6-carbonitrile], the half-inhibitory concentration (IC50) in assay [1] lay in the range of 1 to 100 nM; in assay [2] it was 100 to 1000 nM.
On the same counts, the results for `Fc1cc2nc(-c3cncnc3NCC(F)(F)F)n(C3CC3)c2cc1F` [Example 36, 5-(1-Cyclopropyl-5,6-difluoro-1H-benzo[d]imidazol-2-yl)-N-(2,2,2-trifluoroethyl)pyrimidin-4-amine] are 1 to 100 nM and 100 to 1000 nM.
Regarding `N#Cc1ccc2nc(-c3cncnc3)n(CC(F)(F)F)c2c1` [Example 43, 2-(Pyrimidin-5-yl)-1-(2,2,2-trifluoroethyl)-1H-benzo[d]imidazole-6-carbonitrile], the values for the IC50 in assay [1] and in assay [2] were 1000 to 10000 nM and greater than 10000 nM, respectively.
Taken in the same sequence, the figures for `CCCc1ncncc1-c1nc2ccc(F)cc2n1C1CC1` [Example 14, 1-Cyclopropyl-6-fluoro-2-(4-propylpyrimidin-5-yl)-1H-benzo[d]imidazole] were 1 to 100 nM and 1000 to 10000 nM.
On the same counts, the results for `FC(F)c1ncncc1-c1nc2ccc(Cl)cc2n1C1CC1` [Example 50, 6-Chloro-1-cyclopropyl-2-(4-(difluoromethyl)pyrimidin-5-yl)-1H-benzo[d]imidazole] are 1 to 100 nM and 1000 to 10000 nM.
Taken in the same sequence, the figures for `CS(=O)(=O)c1ccc2nc(-c3cncnc3)n(C3CC3)c2c1` [Example 26, 1-Cyclopropyl-6-(methylsulfonyl)-2-(pyrimidin-5-yl)-1H-benzo[d]imidazole] were 1000 to 10000 nM and greater than 10000 nM.
Take `CCn1c(-c2cncnc2C(F)(F)F)nc2ccc(C#N)cc21` [Example 53, 2-(4-(trifluoromethyl)pyrimidin-5-yl)-1-ethyl-1H-benzo[d]imidazole-6-carbonitrile]: the figures for the half-inhibitory concentration (IC50) in assay [1] and in assay [2] were 1 to 100 nM and 1000 to 10000 nM, respectively.

Usually IC50 stands for the concentration at which inhibition is half-maximal.

(Values after US11919883B2, “Metalloenzyme inhibitor compounds” (Ji Xing Pharmaceuticals Hong Kong Limited, priority 2016, dated 2024).)
